Patent publication US11925678B2, “Methods for diagnosing and treating Alzheimer's disease” (Cava Healthcare Inc., priority 2011, dated 2024)
Where two headings read alike, the source gives them in different places.

How the values were obtained:
animal models of AD = settings: cited from earlier work
endothelial cells = settings: cited from earlier work
Tg2576 mice [1] = assay: Apoptosis by activated caspase-3 staining in immunized mice; format: in vivo, mouse
Protocol: (§1) Injections were performed i.p.
An anti-activated caspase-3 antibody was used as a marker of apoptosis FIG. 9. […] PBS immunized Tg2576 mice, both preventative and therapeutic, had significant activated caspase-3 staining within the FIG. 9a cortex and hippocampus (not shown) that tended to surround probable abeta plaques. […] The overall density of activated caspase-3 staining in these mice was noted to be lower than the Tg2576 treated with abeta. […] Cortex activated caspase-3 staining appear similar in the abeta immunized Tg2576 to the wild-type variants.

[2] = mouse, in vivo
Protocol: Mice were terminally anesthetized with ketamine/xylazine (100 mg/kg; 10 mg/kg) and perfused with PBS for 5 minutes. Brains were then rapidly excised, olfactory bulbs and cerebellum removed, weighed and post-fixed in 4% paraformaldehyde for four days at 4° C. The brains were then imbedded in paraffin and sectioned serially at 5 μm. […] Average brain weights were compared amongst the immunized mice by comparing brain to body mass ratios.

Tg2576 mice [3] = tested on: Tg2576 mice
Protocol: Briefly, two separate vaccination strategies were carried out, therapeutic and preventative. […] In the preventative approach, mice were vaccinated beginning at 6 weeks of age and sacrificed at 12 months. Mice used in the therapeutic strategy were vaccinated beginning at 11 months of age and sacrificed at 15 months. Abeta peptide was freshly prepared from lyophilized powder for each set of injections. For immunizations, 2 mg of abeta (human abeta1-40, Bachem) was added to 0.9 mL of deionized water and thoroughly mixed. Then 100 μL of 10×PBS was added to obtain a final 1×PBS concentration. The solution was vortexed and placed at 37° C. overnight until use the next day. Abeta1-40 (100 μg antigen per injection) or PBS (control) was mixed 1:1 (v/v) with complete Freund's adjuvant (CFA) for the first immunization. This was followed by a boost with abeta1-40 (100 μg) or PBS mixed 1:1 (v/v) with incomplete Freund's adjuvant (ICFA) at two weeks and monthly thereafter. From the fifth immunization onward, straight PBS or abeta were injected. Injections were performed i.p.
Aβ was imaged with a Zeiss LSM 710 Laser Scanning.

[4] = tested on: Tg2576 and wild-type mice
Protocol: (§2) Briefly, two separate vaccination strategies were carried out, therapeutic and preventative. Prior to immunization, mice were bled from the saphenous vein and serum collected. In the preventative approach, mice were vaccinated beginning at 6 weeks of age and sacrificed at 12 months. Mice used in the therapeutic strategy were vaccinated beginning at 11 months of age and sacrificed at 15 months. Abeta peptide was freshly prepared from lyophilized powder for each set of injections. For immunizations, 2 mg of abeta (human abeta1-40, Bachem) was added to 0.9 mL of deionized water and thoroughly mixed. Then 100 μL of 10×PBS was added to obtain a final 1×PBS concentration. The solution was vortexed and placed at 37° C. overnight until use the next day. Abeta1-40 (100 μg antigen per injection) or PBS (control) was mixed 1:1 (v/v) with complete Freund's adjuvant (CFA) for the first immunization. This was followed by a boost with abeta1-40 (100 μg) or PBS mixed 1:1 (v/v) with incomplete Freund's adjuvant (ICFA) at two weeks and monthly thereafter. From the fifth immunization onward, straight PBS or abeta were injected. Injections were performed i.p.
Tg2576 and wild-type mice immunized, preventatively or therapeutically, with either abeta or PBS were assessed for cerebrovascular leakage and TJ abnormalities by confocal microscopy. Mouse albumin was used as a marker for vascular leakage and was visualized as diffuse gradient staining emanating away from vessels FIG. 8b (white arrowhead).

Tg2576 mice [5] = settings: cited from earlier work
[6] = tested on: Tg2576 (Tg/+) and wild-type (+/+) mice; settings: for tight junction abnormalities compared to PBS immunized controls (qualitative) / TJ expression in microvessels/capillaries (qualitative) / incidence of TJ disruption (percentage of blood vessels with abnormal TJ morphology) / TJ expression in larger vessels (qualitative): Tg2576 mice; for tight junction abnormalities compared to PBS immunized controls (qualitative): cortex and hippocampus; for TJ expression in microvessels/capillaries (qualitative): preventative and therapeutic immunization; for incidence of TJ disruption (percentage of blood vessels with abnormal TJ morphology): mean±SEM; for TJ expression in larger vessels (qualitative): preventative or therapeutic immunization
Protocol: as §2
Dewaxed paraffin sections underwent antigen retrieval using a conventional stovetop pressure cooker using 20 mM Tris with 0.7 mM EDTA buffer (pH 9.0) at full steam for 2 minutes. Cooled slides were then incubated in blocking buffer (25% normal goat serum; 3% BSA; 0.3% Triton X-100, Sigma) for 1 hour at room temperature. Primary antibodies used included rabbit anti-ZO-1 (1:200, Invitrogen), mouse anti-ZO-1 (1:200, Invitrogen), rabbit anti-occludin (1:200, Invitrogen), rabbit anti-activated caspase-3 (1:1000, Imgenex), and mouse anti-human CD105 (1:20, DAKO). Primary antibody staining was performed overnight at 4C in staining buffer (10% normal goat serum; 3% BSA; 0.3% Triton X-100). Normal donkey serum was used when staining with goat primary antibodies. Secondary antibodies used were complimentary to the species of the primary conjugated with either Alexa Fluor dyes 488 or 568 (1:500, Invitrogen). Secondary antibody staining was performed at room temperature for 1 hour in staining buffer. TOTO-3 (1:10000, Invitrogen) was used for nuclear counterstaining. Sections were washed in PBS with 0.1% Tween-20 (Sigma) three times for 5 minutes each between staining steps. Stained sections were coverslipped using Fluoromount-G (Southern Biotech) and allowed to air dry in the dark overnight.
Brain sections were analyzed from paraffin blocks from every fifth section. Images taken on a Zeiss LSM510 Meta (Zeiss, Germany), were acquired with 16 slices, averaged four times, through the Z-plane using a 40×/1.3 oil-immersion Plan-Neofluor objective. The composite projected image was imported into Adobe Photoshop, at 600 dpi, and optimized for contrast and brightness. Quantitative analysis of tight junction morphology was analyzed according the methodology developed by Plumb et al. (Brain Pathol 12, 154-169). Confocal data sets represented approximately 100 cerebral blood vessels from both young and aged Tg2576 and littermate controls in the frontal cortex and hippocampus. Individual vessels were scored as either normal (1) or abnormal (0) for ZO-1 expression. Normal ZO-1 expression was judged as strong, continuous, intense and linear staining. In contrast, abnormal ZO-1 expression was judged as weak, punctate and/or discontinuous staining. […] To minimize the recording of incomplete or undulating vessels as abnormal, due to observed “gaps” in ZO-1 staining, evidence of vessel continuity was sought in the images. For example, the presence of stained nuclei (with TOTO-3) or punctate or diffuse ZO-1 remnants was used to localize the position of abnormal gaps along the vessel tract.

Tg2576 (Tg/+) mice = assay: Microvessel density (MVD) by CD105 staining in immunized mice; format: in vivo, mouse; settings: for microvessel density (MVD), ratio of TFA to total area of imaged field: CD105 staining, mean±SEM
Protocol: as §1
Microvessel density (MVD) was quantified by confocal microscopy using the methods developed by Guo et al. (Angiogenesis 4, 187-191 with minor modifications). Using CD105 as a marker of angiogenic cerebrovasculature (Masliah et al. (2005) Neurology 64, 129-131), images of optimal fluorescent intensity were acquired and analyzed using the Zeiss LSM510 Meta software. Areas within the brain section containing high density (“hotspots”) (Bombois et al. (2007) Arch Neurol 64, 583-587) CD105 staining were imaged using the 20×/0.45 N-Achroplan objective using the confocal imaging parameters mentioned previously. The total fluorescence area (TFA) in μm^2 was integrated above background, by the software, for each hotspot. The average TFA from four different hotspots per mouse was quantified. The TFA was used as a numerical representation of the total microvessels stained by the CD105 antibody. The MVD of the imaged field was expressed as a ratio of the TFA to the total area of the image.
Microvessel density quantification: Microvessel density was quantified by confocal microscopy using the methods described previously Biron et al., PLoS ONE 6, e23789 (2011)). Using CD105 as a marker of angiogenic cerebrovasculature (Holley et al. Neurosci Lett 470, 65-70 (2010)), images of optimal fluorescent intensity were acquired and analyzed using the Zeiss LSM510 Meta software. Areas within the brain section containing high density (“hotspots”) CD105 staining were imaged using the 20×/0.45 N-Achroplan objective using the confocal imaging parameters mentioned previously. The total fluorescence area (TFA) in μm^2 was integrated above background, by the software, for each hotspot. The average TFA from four different hotspots per mouse was quantified. The TFA was used as a numerical representation of the total microvessels stained by the CD105 antibody. The microvascular density of the imaged field was expressed as a ratio of the TFA to the total area of the image.

[7] = Tg2576 mice, preventative and therapeutic

Compound: C=C(c1ccc(C(=O)O)cc1)c1cc2c(cc1C)C(C)(C)CCC2(C)C [bexarotene]
- memory performance (animal models of AD): increase memory performance
- plaque burden (animal models of AD): reduce plaque burden
- angiogenesis (proliferation, adhesion, invasion and migration of endothelial cells) (endothelial cells): inhibits angiogenesis

Compound: human abeta1-40
- distribution of activated caspase-3 staining (Tg2576 mice [1]; Tg2576 mice): hippocampal restricted caspase-3 staining
- activated caspase-3 staining (qualitative, overall) (Tg2576 mice [1]; Tg2576 mice (FIG. 9)): reduced activated caspase-3 staining
- activated caspase-3 staining in cortex (Tg2576 mice [1]; [7]): limited caspase-3 staining
- average brain to body weight ratio (difference between groups) [2]: did not reach significance
- abeta deposition in cerebral capillaries (Tg2576 mice [3]; Tg2576 mice): No abeta deposition
- parenchymal Aβ plaques (Tg2576 mice [3]; Tg/+ mice preventatively immunized): complete elimination
- Aβ plaque pathology (Tg2576 mice [3]; Tg/+ mice therapeutically treated): dramatic decrease
- Aβ deposits compared to Tg/+, PBS (qualitative) (Tg2576 mice [3]; Tg/+ mice, therapeutic or preventative (FIG. 14)): general reduction of Aβ deposits
- vascular abeta deposition in larger vessels (Tg2576 mice [3]; mouse, in vivo): Mild vascular abeta deposition
- overall vascular leakage (qualitative) ([4]; Tg2576 mice, preventatively immunized (FIG. 8)): overall reduced vascular leakage
- vascular leakage in larger vessels (mouse albumin) ([4]; mouse, in vivo): periodic vascular leakage
- vascular leakage in wild-type mice ([4]; mouse, in vivo): no vascular leakage
- plaque burdens and microgliosis (Tg2576 mice [5]; Tg2576 mice): significantly reduced
- immune response: anti-abeta antibody titres (Tg2576 mice [5]; mice immunized preventatively or therapeutically): increase in anti-abeta antibody titres
- global integrity of the BBB (Tg2576 mice [5]; post-abeta immunized Tg2576 mice): improves significantly
- percentage of abnormal vascular TJ expression ([6]; Example 3, Tg/+ mice immunized preventatively from 6 weeks of age, neocortex and hippocampus): ~10%
- percentage of abnormal vascular TJ expression (TJ pathology) ([6]; Example 3, Tg/+ mice immunized therapeutically at 11 months of age, neocortex and hippocampus): ~10%
- tight junction abnormalities compared to PBS immunized controls (qualitative) [6]: reduced tight junction abnormalities
- tight junction abnormalities compared to PBS immunized controls (qualitative) ([6]; listed as Abeta): markedly reduced TJ pathology
- tight junction abnormalities compared to PBS immunized controls (qualitative) ([6]; listed as Aβ): reduced tight junction abnormalities
- TJ expression in microvessels/capillaries (qualitative) [6]: normal TJs
- TJ expression in microvessels/capillaries (qualitative) ([6]; listed as Aβ): normal ZO-1 expression in the capillaries
- incidence of TJ disruption (percentage of blood vessels with abnormal TJ morphology) ([6]; preventative immunization (6 weeks to 12 months), cortex): 11.33±2.40%
- incidence of TJ disruption (percentage of blood vessels with abnormal TJ morphology) ([6]; preventative immunization, hippocampus): 11.91±1.73%
- TJ expression in larger vessels (qualitative) [6]: larger proportion of abnormal TJ expression
- TJ expression in larger vessels (qualitative) ([6]; listed as Aβ): some abnormal TJ pathology mainly in larger vessels
- incidence of TJ disruption (percentage of blood vessels with abnormal TJ morphology) ([6]; therapeutic immunization (11 to 15 months), cortex): 10.40±0.81%
- incidence of TJ disruption (percentage of blood vessels with abnormal TJ morphology) ([6]; therapeutic immunization, hippocampus): 11.00±2.26%
- microvessel density (MVD), ratio of TFA to total area of imaged field (Tg2576 (Tg/+) mice; Tg2576 mice immunized preventatively): 0.1972±0.0075
- microvessel density (MVD), ratio of TFA to total area of imaged field (Tg2576 (Tg/+) mice; Tg2576 mice immunized therapeutically (after disease onset)): 0.2180±0.0130
- microvascular density compared to PBS controls (qualitative) (Tg2576 (Tg/+) mice; [7]): reduced microvascular density
